{
  "source": "patent US20170119769A1",
  "about": "“SCAFFOLDS FOR INHIBITORS OF MENIN-MLL INTERACTIONS” (THE TRUSTEES OF THE UNIVERSITY OF PENNSYLVANIA, priority 2014, published 2017)",
  "key": {"[1]": {"system": "menin-expressing MEF cells", "test": "Cell growth of menin-expressing MEFs", "assay_type": "cell-based, mouse", "details": "increasing concentrations from day 1; counted after six days of treatment", "protocol": "(§1) FIG. 15. Menin inhibition antagonizes menin mediated suppression of cell proliferation. […] Vector and menin-expressing MEFs (inset) were seeded at 0.25×10^6 cells/10 cm dish on day 0, treated with either DMSO or increasing concentrations of MI-2-2 from day 1 as indicated, and counted after six days of treatment.\n(§2) Vector and menin-expressing MEFs (FIG. 15, inset) were seeded at 0.25×10^6 cells/10 cm dish on day 0, treated with either DMSO or increasing concentrations of MI-2-2 from day 1 as indicated, and counted after six days of treatment. Thus, inhibition of menin antagonizes menin mediated suppression of cell proliferation."}, "[2]": {"system": "menin-null (vector) MEF cells", "test": "Cell growth of menin-null (vector) MEFs", "assay_type": "cell-based, mouse", "details": "increasing concentrations from day 1; counted after six days of treatment", "protocol": "as §1, §2"}, "[3]": {"system": "murine islets", "test": "Proliferation (Ki67) in isolated murine islets", "assay_type": "cell-based, C57BL/6J mice", "description": "FIG. 14. Menin inhibitor (MI-2-2) increases proliferation in murine islets, as evidenced by increased number of cells positive for the proliferation marker Ki67. […] Isolated murine islets were pre-cultured for one day before treatment with drug or vehicle.\nThe ability of MI-2-2 to stimulate cell growth was further tested in murine islets isolated from C57BL/6J mice (Jackson Laboratories, Bar Harbor, Me.)."}, "[4]": {"system": "GLP1 receptor", "test": "GLP1 receptor expression in human islets (real time quantitative PCR)", "assay_type": "cell-based", "details": "50 nM, 200 nM or 500 nM for 2 days, vs DMSO", "protocol": "FIG. 16. Menin inhibition increases expression of the GLP1 receptor Human islets were cultured in a humidified incubator with 5% CO2 at 37° C. After 24 hours, the islets were treated with vehicle control (DMSO) or varying concentrations of MI-2-2 (50 nM, 200 nM or 500 nM) for 2 days. The islets were harvested and. RNA was isolated and was reverse transcribed to cDNA. cDNA was quantitated by real time quantitative PCR and normalized using β-actin as endogenous control.\nMenin inhibition also increases expression of GLP1 receptor, which is the receptor mediating the pro-islet incretin's ability to reduce blood glucose (FIG. 16). Human islets were procured from the Islet Transplantation Center, University of Pennsylvania and cultured in a humidified incubator with 5% CO2 at 37° C. After 24 hours, the islets were treated with vehicle control (DMSO) or varying concentrations of MI-2-2 (50 nM, 200 nM or 500 nM) for 2 days. […] RNA was isolated using the RNeasy Mini Kit (Qiagen, Germantown, Md.) and was reverse transcribed to cDNA using the SuperScript® III Reverse Transcriptase (Life Technologies, Grand Island, N.Y.). cDNA was quantitated by real time quantitative PCR using QuantiTect SYBR® Green (Qiagen, Germantown, Md.) on a 7500 Fast Real time PCR system (AppliedBiosystems, Life Technologies, Grand Island, N.Y.) and normalized using β-actin as endogenous control."}},
  "note": "“Also recorded” adds a separate entry of the source.",
  "data": [
    {"compound": "CC1(C)CN=C(N2CCN(c3ncnc4sc(CC(F)(F)F)cc34)CC2)S1", "note": "[MI-2-2]", "values": [
      {"measurement": "cell growth of menin-expressing MEFs", "setting": "[1]", "result": "increased cell growth in menin MEFs in a concentration dependent manner; also recorded: increases proliferation of menin-expressing MEF cells"},
      {"measurement": "cell growth of menin-null (vector) MEFs", "setting": "[2]", "result": "did not do so in vector MEFs; also recorded: not menin-null (vector) cells"},
      {"measurement": "Ki67 staining in murine islets", "setting": "[3]; 500 nM for two days, compared with vehicle control", "result": "increased Ki67 staining"},
      {"measurement": "Ki67 positive cells per unit area in murine islets", "setting": "[3]; treatment for 2 days, concentration dependence", "result": "increased the number of proliferating cells in a concentration dependent manner; also recorded: dose dependent increase"},
      {"measurement": "expression of GLP1 receptor relative to β-actin expression", "setting": "[4]", "result": "about 2 fold"}
    ]}
  ]
}
